Data from patent US8946244B2, “2′-fluoro-6′methylene carbocyclic nucleosides and methods of treating viral infections” (University of Georgia Research Foundation, Inc., priority 2009, dated 2015).

Columns and labels:
[1] = system: wild-type HBV; experiment: intracellular HBV DNA replication assay, wild-type HBV; assay type: cell-based, Hepatitis B virus
Description: (§1) Drug susceptibility assays were performed as previously described. Cytotoxicity assays in PBM, CEM and Vero cells were conducted as previously described. Two compounds were used for testing, the first, an adenine nucleoside analog which contained hydroxyl groups at R^1 and R^1a on the sugar portion of the molecule (compound 15/18) and the second, a prodrug nucleoside based upon compound 15/18 which contained a phosphoamidate group on R^1 (R^1a was H) containing a phenyl group as R^6 and B′ was an amino acid group derived from alanine, where R^8 was methyl and R″ was a methyl group, forming a methyl ester. These compounds were tested in a standard HBV assay in the laboratory of Dr. Brent Korba.

[2] = system: HBV rtA181T and rtN236T; conditions: cited from earlier work
[3] = system: HBV double mutant rtL180M/rtM204V; experiment: intracellular HBV DNA replication assay, double mutant; assay type: cell-based; conditions: Hepatitis B virus
Description: as §1

[4] = system: HBV rtL180M; experiment: intracellular HBV DNA replication assay, rtL180M mutant; assay type: cell-based, Hepatitis B virus
Description: as §1

[5] = system: HBV; experiment: standard HBV assay (laboratory of Dr. Brent Korba); assay type: cell-based, Hepatitis B virus
Description: as §1

[6] = system: lamivudine-resistant mutants including rtM204V/I±rtL180M; conditions: literature ref. 50; cited from earlier work

SMILES: Nc1ncnc2c1ncn2CCOCP(=O)(O)O [adefovir]
- EC90 ([1]; Hepatitis B virus, HBV-WT, concentration required to inhibit 90% of HBV DNA, read-out: EC90 against wild-type HBV): 7.1 µM
- increase in median effective concentration [2]: two-fold to nine-fold
- EC50 ([3]; read-out: EC50 against double mutant rtL180M/rtM204V): 2.2 µM
- EC90 ([3]; read-out: EC90 against double mutant rtL180M/rtM204V): 8.5 µM

SMILES: C=C1[C@@H](n2cnc3c(N)ncnc32)[C@@H](F)[C@H](O)[C@H]1CO [Compound 15, (+)-(1R,2R,3R,5R)-3-(6-amino-9H-9-purinyl)-2-fluoro-5-(hydroxymethyl)-4-methylenecyclopentan-1-ol]
- fold more potent than adefovir (EC90) ([1]; wild-type HBV, EC90): 1.5 fold
- fold increased antiviral activity in the EC90 value versus lamivudine [4]: 4.3 fold

SMILES: C=C1[C@@H](n2cnc3c(N)ncnc32)[C@@H](F)[C@H](O)[C@H]1CO (hydrate or solvate) [Compound 15, (+)-(1R,2R,3R,5R)-3-(6-amino-9H-9-purinyl)-2-fluoro-5-(hydroxymethyl)-4-methylenecyclopentan-1-ol]
- melting point: 215 to 218 °C (dec.)

SMILES: C=C1C(COP(=O)(N[C@@H](C)C(=O)OC)Oc2ccccc2)C(O)C(F)C1n1cnc2c(N)ncnc21 (stereo partly drawn) [Test Number 2, 2′-Deoxy-2′-fluoro-3′-hydroxy-4′-(hydroxymethyl)-5′-methylene-carbocyclic Adenosine (2′-FMCA) Monophosphate prodrug]
- times more active than the compound where both R1 and R1a are H [5]: more than 10 times

SMILES: C=C1[C@H](CO)[C@@H](O)C[C@@H]1n1cnc2c(=O)[nH]c(N)nc21 [entecavir]
- fold loss of activity against lamivudine-resistant mutants [6]: 8 fold
